Entries after “also recorded” stand apart in the source; their conditions may differ. Read-outs that look alike come from different tables or passages of the source.
Assays:
[1] = system: human peripheral blood lymphocytes (PBL); test: Mitogen stimulation and proliferation assay (3H-thymidine uptake); assay type: cell-based; settings: for lymphocytic activity including proliferation and humoral response (in words): normal T lymphocyte
Procedure: A thymidine uptake assay was used to evaluate the effect of […] inhibitors on the proliferative activity of normal lymphocytes. Cell suspensions of fresh human peripheral blood lymphocytes (PBL) were resuspended in RPMITM 1640 medium supplemented with 10% foetal bovine serum at a concentration of 2×10^6/ml. Aliquots of […] were plated on a […] (96-well) and stimulated with 10 ug/ml of (Con-A) or 40 ug/ml of (LPSTM) at a final volume of 0.2 ml/well. ConATM and LPSTM were used to stimulate preferentially T cells and B cells, respectively. […] After an additional a 4 h incubation at 37° C., cells were collected with a cell harvester and ^3H thymidine incorporation was measured in triplicate samples by liquid scintillation counting.

[2] = system: NTPDase; test: NTPDase assay on intact human peripheral blood lymphocytes (PBL); assay type: biochemical
Procedure: Human lymphocytes were obtained from peripheral venous blood of normal and healthy medication-free volunteers. Fresh blood collected in EDTA glass tubes was layered into Histopaque™-1077 (a solution of Ficoll™ and sodium diatrizoate adjusted to a density of 1.077, Sigma, USA) and centrifuged at 400 g for exactly 30 min, at room temperature. During centrifugation, erythrocytes and granulocytes were aggregated by Ficoll™ and rapidly sedimented, whereas lymphocytes remained at the plasma interface. Plasma (the upper layer) was carefully removed to prevent disturbance of the buffy coat. The latter fraction rich in lymphocytes was recovered with a pasteur pipette and washed twice with RPMI™ 1640 medium by centrifugation, for 10 min, at 250×g. The final pellet was suspended in fresh RPMI™ 1640 medium supplemented with 2 mM L-glutamine, 10% foetal bovine serum inactivated at 56° C. for 30 min, and antibiotics: penicillin […], streptomucin 100 ug/ml and amphotericin 2.5 ug/ml. Cells were counted with the hemacytometer. […] The cell preparation named PBL (for peripheral blood lymphocyte) was immediately used for NTPDase assays and for mitogenic responses to stimulators.
Prior to the assays, human normal lymphocytes as well as leukemic cell lines, were washed three times with phosphate-free saline in 95 mM NaCl, 1 mM CaCl2, 2 mM MgCl2 and 45 mM Tris —HCl buffer (pH 7.4). Enzyme assays were carried out at 37° C. in 1 ml of the following assay medium: 95 mM NaCl, 5 mM KCl, 1 mM CaCl2, 2 mM MgCl2, 5 mM glucose, 0.05% BSA, 5 mM tetramisole and 45 mM Tris-HCl (pH 7.5). The reaction was started by adding the substrate (200 uM of ATP or ADP) and stopped with 250 ul of the Malachite green reagent. Controls were run with the enzyme added after the Malachite green reagent. Where indicated, 10 mM sodium azide (NaN3) or 1 mM, 5 mM and 10 mM of BGO 136 were added directly to the assay mixture. Inorganic phosphate was estimated according to Baykov et al.^(1) and enzyme activity was either expressed as nmoles of Pi released/min/mg of protein which corresponds to mUnits^(2) or as nmoles Pi/min/10^6 cells. Where indicated, lymphoid cells were lysed by three freeze thaw cycles in saline buffer and protein was measured with the method of Bradford using bovine serum albumin as a standard (3).

[3] = system: Jurkat cells; test: Cell growth and proliferation of Jurkat cell lines; assay type: cell-based, human; settings: inhibitor added at day 0; cell counts on day 5
Procedure: T cell Jurkat is an acute T cell leukemia obtained from the peripheral blood of human. It was purchassed from ATCC and was grown and maintained in RPMI™. 1640 medium containing 10% FBS, 2 mM L-glutamine adjusted to contain 1.5 g/L sodium bicarbonate, 4.5 g/L glucose, 10 mM HEPES and 1.0 mM sodium pyruvate. To evaluate the effect of the different inhibitors of NTPDases on the growth of Jurkat cells, BGO 136, erythrosin, 8 Bus ATP, AMP and β-γ-Me ATP were added in the RPMI™ 1640 medium in presence of cells at day=0. Cells counts and viability of cells were determined on day=5.

[4] = system: mice; test: Graft vs. host reaction, spleen weight after cell transplant (Bundick model); assay type: in vivo; settings: for splenomegaly: spleen weighed 21 days after injection of parents' spleen cells; for suppression %: suppression of splenomegaly, no treatment = 100, positive = 0
Procedure: Mice were injected their parents' spleen cells. 21 days later, their spleen was weighed. Activation of Th2 (T helper cells) cells. The treatment groups are cyclosporin, BGO, and AMP. […] The “No treatment group” is constituted of normal mice. The “positive” group is constituted of mice having undergone spleen tissue transplantation and having been injected with the carrier only (PBS™) without inhibitor. […] The spleen of all mice was then removed and weighed. The weigh of treated mice was then compared with that of the “No treatment” mice.

[5] = target: NTPDase; settings: ATP and ADP as substrate; read-out: Ki (mixed type of inhibition); cited from earlier work
[6] = system: mice; test: In vivo antibody production assay (humoral response to BSA, ELISA)
Procedure: Immunity mice were primed with antigen by an intraperitoneal injection of BSA as a T-dependent antigen. Briefly, BSA was resuspended in PBS (pH 7.2) and emulsified in the same volume of complete Freund's adjuvant (CFA). 30 ug BSA in […] PBS was given to each mouse. Four groups of ten mice were immunized. • Group 1: mice were injected i.p. with BSA alone with emulsified in (CFA) Group: Ag. • Group 2: mice were injected i.p. with BSA plus BGO 136 (400 mM) in […] PBS, emulsified in (CFA) or erythrosin B (0.25 g/Kg) • Group 3: mice were injected i.p. with BSA plus BGO 136 (800 mM) in […] PBS, emulsified in (CFA) or erythrosin B (0.5 g/Kg) • Group 4: mice were treated with BSA in presence of the inhibitor emulsified in (CFA). These mice received various i.p. doses of BGO 136 400 mM in 0.1 ml of normal PBS or erythrosin B 0.25 g/Kg, 2 doses/week are given as a maintenance dose. (group named DM=maintenance dose)
These initial immunizations (i.p.) were followed by two subsequent immunizations with emulsions of BSA alone or in presence of BGO136 400 mM or 800 mM, in incomplete Freund's adjuvant. Five days after each immunization, blood was collected from each animal, sera was analysed by an ELISA assay.
Flat-bottomed microtiter plate were coated with BSA (5 ug/ml) in NaHCO3/Na2CO3 50 mM (pH 9.6) at 37° C. for 2 h. Plates were washed three times with (PBS buffer, pH 7.4, 0.5 ml/L Tween-20) and then blocked with 400 ul of milk per well overnight, at 4° C. Diluted sera specimens were added (100 ul/well) and incubated for 2 h at 37° C. After thorough washing, wells were incubated with 100 ul of goat-anti-mouse IgG conjugated with peroxydase for 2 h at 37° C. followed by several washes. TMB substrate solution (100 ul/well), (42 mM TMB in DMSO, 0.1 M citric acid, Na2HPO4 0.2 M and H2O2 30%) was added. Color development was allowed to proceed for approximately 15 to 30 min, at room temperature. Reaction was terminated by adding 30 ul of 4N H2SO4. Optical density was read at 450 nm.

SMILES	lymphocytic activity including proliferation and humoral response (in words) [1]	effect on NTPDase activity (in words) [2]	proliferation induced by ConA (in words) ([1]; ConA-stimulated PBL)	Jurkat cell proliferation (in words) [3]	splenomegaly [4]	suppression % [4]	also measured
CCCCSc1nc2c(N)ncnc2n1[C@@H]1O[C@H](COP(=O)(O)O)C(O)[C@@H]1O (stereo partly drawn) [8 BUS-AMP]	decrease	pronounced dose-dependent inhibition	–	–	–	–	effect on NTPDase activity (in words) ([2]; listed as 8 Bus AMP): decrease the NTPDase activity
CCCCSc1nc2c(N)ncnc2n1C1OC(COP(=O)(O)OP(=O)(O)OP(=O)(O)O)C(O)C1O (stereo not drawn) [8 BUS-ATP]	decrease	decrease the NTPDase activity	reduced cell proliferation	marked reduction of cell proliferation	–	–	–
Nc1ncnc2c1ncn2[C@@H]1O[C@H](COP(=O)(O)O)[C@@H](O)[C@H]1O [AMP, adenosine 5′-monophosphate]	–	–	–	marked reduction of cell proliferation	6.7 ± 0.82 mg/g of b. weight	8%	–
O=S(=O)(O)c1ccc2c(O)cc(S(=O)(=O)O)cc2c1 [BGO 136, 1-hydroxynaphtalene-3,6 disulfonic acid]	decrease	decrease the NTPDase activity; also recorded: dose-dependent inhibition	inhibited in a dose-dependent manner	marked reduction of cell proliferation	4.3 ± 0.29 mg/g of b. weight	56%	proliferation induced by ConA, percent of the positive control values ([1]; ConA-stimulated PBL, 10 mM): about 10%; inhibition of LPS-induced proliferation (in words) ([1]; LPS-stimulated PBL): much less pronounced; proliferation of non-activated lymphocytes (3H-Thymidine incorporation in DNA) ([1]; unstimulated PBL): did not affect; Ki [5]: 380 µM; tolerance: toxic or allergic reactions ([6]; during administration (two months)): No toxic or allergic reactions were observed; effect on levels of albumin antibodies (in words) ([6]; repeated injections (group DM) versus single dose): even more efficient; reduction of levels of albumin antibodies ([6]; single dose 800 mM i.p.): ≤ 50%; efficiency in preventing spleen growth following transplantation, versus cyclosporine [4]: more efficient than cyclosporine; transplanted spleens versus positive control mice (in words) ([4]; ANOVA): significantly smaller; inhibition of ATPase and ADPase activities ([2]; 5 mM): 40%; inhibition of ATPase and ADPase activities ([2]; 10 mM): ≥ 50%
O.O=C([O-])c1ccccc1-c1c2cc(I)c(=O)c(I)c-2oc2c(I)c([O-])c(I)cc12.[Na+].[Na+] [erythrosin B]	decrease	dose-dependent inhibition; also recorded: decrease the NTPDase activity	dose-dependent inhibition	marked reduction of cell proliferation	–	–	levels of antibodies to albumin (in words) ([6]; especially with multiple injections (group DM)): significant decrease
Nc1ncnc2c1ncn2[C@@H]1O[C@H](COP(=O)(O)OP(=O)(O)CP(=O)(O)O)[C@@H](O)[C@H]1O [β-γ-Me ATP, beta-gamma methylene ATP]	decrease	inhibited in a dose-dependent manner; also recorded: decrease the NTPDase activity	reduced cell proliferation	less pronounced but significant effect	–	–	–
